Key:
MKN1 cell line [1] = assay: Oxygen consumption rate and extracellular acidification rate (Seahorse), MKN1; type: cell-based, human
Procedure: (§1) In particular, in order to confirm that the compound CCG-232601 has an excellent inhibitory effect on cancer stem cell growth, the oxygen consumption rates (OCRs) and extracellular acidification rates (ECARs) of the stem-like cell lines HS746T and MKN1 having high resistance to metabolic stress were measured and the results are shown in FIG. 2. More specifically, each of the cell lines was seeded in Seahorse normal culture medium at 70 to 80% confluency, and mitochondrial oxidation and glycolytic activity were measured by measuring oxygen consumption rate (OCR, pmol/min/μg protein) and extracellular acidification rate (ECAR, mpH/min/μg protein) using an XF96 or XFp extracellular flux analyzer (Agilent). Mitochondrial oxidation ability of cells pretreated for 1 hour with or without 10 mM β-HB (Sigma) was evaluated using the Seahorse XF mito stress kit (Agilent). To address changes in oxidation and glycolysis upon treatment with CCG-232601, cells were pretreated overnight with vehicle or the inhibitor, and finally 10 mM β-hydroxybutyrate was added during the first injection.

MKN1 cell line [2] = assay: Transwell invasion assay, MKN1; type: cell-based, human; conditions: MKN1, 10 μg/ml, 12 hours, Matrigel transwell, FIG. 3
Procedure: (§2) Transwell invasion assay was performed with or without CCG-232601 treatment. The invasion ability was measured using a 6.5-mm transwell with an 8.0 μm-pore polycarbonate membrane insert (Corning) after coating with Matrigel (Corning) diluted to 0.67 μg/μl with serum-free medium. Then, cells (2×10^4 cells/well) were suspended in 200 μL of a serum-free medium with vehicle or in 10 μg/ml of CCG-232601, and 1,000 μL of culture medium containing 10% FBS was added to the lower chamber. After 12 hours, the migrated cells were stained with 0.2% crystal violet and observed under an optical microscope. The average number of cells that penetrated the membrane was calculated with ImageJ (NIH) from three randomly selected high-power fields and from two independent experiments, and the results are shown in FIG. 3.

NCIN87 cell line = assay: Cell viability assay (Cell Counting Kit-8), NCIN87; type: cell-based, human; conditions: NCIN87 gastric cancer cells, treatment alone, various concentrations, 48 hours, FIG. 1
Procedure: (§3) In order to evaluate the ability to inhibit the growth or metastasis of cancer cells or cancer stem cells in the examples according to the present invention, the present inventors obtained MKN1 and HS746T, which are cell lines having human gastric cancer stem cell characteristics, and SNU601, YCC7 and NCIN87 cells, which are human gastric cancer cell lines, from the American Type Culture Collection (ATCC) and the Korean Cell Line Bank (KCRB). The cell lines were cultured in different culture media and culture conditions according to ATCC's or KCRB's guidelines. […]
(§4) Each of the cell lines cultured in the Preparation Example was dispensed into a well plate at a density of 1×10^4 cells per well, and cultured overnight at 37° C. under 5% CO2. […] 100 μL of each cell culture and 10 μL of reaction buffer (CCK) were mixed together, placed in a 96-well plate, and incubated for 1 hour at room temperature, and then the absorbance at a wavelength of 450 nm was measured using a spectrophotometer (Synergy HTX Multi-Reader, BioTek, Winooski, VT, USA). At the same time, the number of cells in each sample was measured with a cell viability assay kit (Cell Counting Kit-8), and the measured value was converted so that the measured value for the same number of cells in each sample could be compared with the number of cells in the negative control group. […]

MKN1 cell line [3] = assay: Cell viability assay (Cell Counting Kit-8), MKN1; type: cell-based, human; conditions: for antitumor effect (cell viability): MKN1 stem-like cells, treatment alone, various concentrations, 48 hours, FIG. 1
Procedure: (§5) In order to evaluate the ability to inhibit the growth or metastasis of cancer cells or cancer stem cells in the examples according to the present invention, the present inventors obtained MKN1 and HS746T, which are cell lines having human gastric cancer stem cell characteristics, and SNU601, YCC7 and NCIN87 cells, which are human gastric cancer cell lines, from the American Type Culture Collection (ATCC) and the Korean Cell Line Bank (KCRB). The cell lines were cultured in different culture media and culture conditions according to ATCC's or KCRB's guidelines. The MKN1, SNU601, and NCIN87 cell lines were cultured in RPMI1640 medium containing 10% fetal bovine serum (FBS), 2 mM L-glutamine, 100 U/ml penicillin and 100 μg/ml streptomycin, and the HS746T and YCC7 Cell lines were cultured in DMEM containing 10% FBS, 2 mM L-glutamine, 100 U/ml penicillin and 100 μg/ml streptomycin. All the cell lines were cultured at 37° C. under 5% CO2, and subjected to a mycoplasma contamination test.
(§6) Each of the cell lines cultured in the Preparation Example was dispensed into a well plate at a density of 1×10^4 cells per well, and cultured overnight at 37° C. under 5% CO2. Then, the HS746T and MKN1 cell lines, which are gastric cancer stem-like cells, and the YCC7 and NCIN87 cell lines, which are gastric cancer cells, were treated with various concentrations of each of cisplatin (CDDP), which is an anticancer drug currently frequently used in the treatment of gastric cancer patients, and the compound CCG-232601 which is an MRTF-A inhibitor. 100 μL of each cell culture and 10 μL of reaction buffer (CCK) were mixed together, placed in a 96-well plate, and incubated for 1 hour at room temperature, and then the absorbance at a wavelength of 450 nm was measured using a spectrophotometer (Synergy HTX Multi-Reader, BioTek, Winooski, VT, USA). At the same time, the number of cells in each sample was measured with a cell viability assay kit (Cell Counting Kit-8), and the measured value was converted so that the measured value for the same number of cells in each sample could be compared with the number of cells in the negative control group. The experimental results presented are the mean values of the repeated experiments.
Accordingly, in order to evaluate the effect of co-administration of the compound CCG-232601, the survival and growth inhibitory effects of administration of CCG-232601 and cisplatin (CDDP) alone or in combination to the MKN1 cell line were evaluated using a cell viability assay kit (Cell Counting Kit-8; CCK-8). In order to evaluate the effect of administration in combination compared to that of administration alone, 5 μg/ml of CCG-232601 was firstly administered to the MKN1 cell line, and after 24 hours, 5 μM cisplatin (CDDP) was secondarily administered. After 24 hours therefrom, the results were checked with a cell viability analysis kit (CCK-8 assay).

HS746T cell line [4] = assay: Cell viability assay (Cell Counting Kit-8), HS746T; type: cell-based, human; conditions: for antitumor effect (cell viability): HS746T stem-like cells, various concentrations, FIG. 1; for antitumor effect (cell viability) / antitumor effect (number of living cells): treatment alone, 48 hours; for antitumor effect (number of living cells): cisplatin 5 and 10 μM, compounds 5 and 10 μg/ml, FIGS. 7A and 7B
Procedure: as §5, §6
The present inventors attempted to further confirm the therapeutic effects of the compounds CCG-222740 and CCG-203971, which are compounds other than the compound CCG-232601 corresponding to the MRTFA/SRF inhibitors, against cancer stem cells. As reviewed in Example 1 above, it has been confirmed that the gastric cancer cell line HS746T is of a stem cell-like gastric cancer type, and thus is resistant to the anticancer drug cisplatin. The HS746T cell line was treated with cisplatin and the compounds CCG-222740 and CCG-203971 corresponding to MRTFA/SRF inhibitors. For cell treatment, cisplatin was used at concentrations of 0 μM, 5 μM and 10 μM, and the compound CCG-222740 or CCG-203971 was used at concentrations of 0 μg/ml, 5 μg/ml and 10 μg/ml. The control group was treated with the same amount of DMSO as the compound used for each experimental group. After 48 hours, the number of living cells was measured using a cell viability assay kit (Cell Counting Kit-8), and the results are shown in FIGS. 7A and 7B.

HS746T cell line [5] = assay: Transwell invasion assay, HS746T; type: cell-based, human; conditions: 10 μg/ml, 12 hours, Matrigel transwell, FIG. 3
Procedure: as §2

HS746T cell line [6] = assay: Oxygen consumption rate and extracellular acidification rate (Seahorse), HS746T; type: cell-based, human
Procedure: as §1

YCC7 cell line = assay: Cell viability assay (Cell Counting Kit-8), YCC7; type: cell-based, human; conditions: YCC7 gastric cancer cells, treatment alone, various concentrations, 48 hours, FIG. 1
Procedure: as §3, §4

[7] = system: bleomycin-induced dermal fibrosis; conditions: administered orally to mice; cited from earlier work
[8] = system: human colonic myofibroblasts; conditions: cited from earlier work
[9] = system: lung fibrosis lung fibroblasts; conditions: cited from earlier work
[10] = system: murine model of skin injury; conditions: cited from earlier work
[11] = system: preclinical model of fibrosis; conditions: cited from earlier work
[12] = system: alpha smooth muscle actin protein; conditions: cited from earlier work

O=C(Nc1ccc(Cl)cc1)C1CN(C(=O)c2cccc(-c3ccncc3)c2)CC(F)(F)C1 (centres unmarked) [CCG-232601, N-(4-chlorophenyl)-5,5-difluoro-1-(3-(pyridin-4-yl)benzoyl)piperidine-3-carboxamide]
extracellular acidification rate (ECAR) versus oxygen consumption rate (OCR) (MKN1 cell line [1]; MKN1, pretreated overnight, 10 mM β-hydroxybutyrate at first injection, FIG. 2): the glycolysis ECAR was higher than OCR
sensitivity to glucose deprivation (MKN1 cell line [1]; gastric cancer stem cells (MKN1)): greatly increased the sensitivity to glucose deprivation
invasion and metastasis (cells that penetrated the membrane) (MKN1 cell line [2]): reduced the invasion and metastasis
antitumor effect (cell viability) (NCIN87 cell line): exhibited antitumor effects
cell viability lower than in the negative control group and the cisplatin-only group (MKN1 cell line [3]; MKN1, 5 μg/ml administered alone, CCK-8, FIG. 6): 20%
antitumor effect (cell viability) (MKN1 cell line [3]): significantly improved antitumor effects
antitumor effect (cell viability) (HS746T cell line [4]): significantly improved antitumor effects
invasion and metastasis (cells that penetrated the membrane) (HS746T cell line [5]): reduced the invasion and metastasis
extracellular acidification rate (ECAR) versus oxygen consumption rate (OCR) (HS746T cell line [6]; HS746T, pretreated overnight, 10 mM β-hydroxybutyrate at first injection, FIG. 2): the glycolysis ECAR was higher than OCR
sensitivity to glucose deprivation (HS746T cell line [6]; gastric cancer stem cells (HS746T)): greatly increased the sensitivity to glucose deprivation
antitumor effect (cell viability) (YCC7 cell line): exhibited antitumor effects
development of bleomycin-induced dermal fibrosis [7]: suppress the development of bleomycin-induced dermal fibrosis

N.N.[Cl][Pt][Cl] [cisplatin]
drug sensitivity upon cisplatin (CDDP) treatment (MKN1 cell line [3]; MKN1, FIG. 4): exhibited resistance to cisplatin
antitumor effect (cell viability) (MKN1 cell line [3]): did not exhibit antitumor effects
drug sensitivity lower than that of the cancer cell lines (MKN1 cell line [3]; MKN1 versus SNU601 and NCIN87, cisplatin, FIG. 4): 20 to 40%
antitumor effect (cell viability) (HS746T cell line [4]): did not exhibit antitumor effects
drug sensitivity lower than that of the cancer cell lines (HS746T cell line [4]; HS746T versus SNU601 and NCIN87, cisplatin, FIG. 4): 20 to 40%
drug sensitivity upon cisplatin (CDDP) treatment (HS746T cell line [4]; HS746T, FIG. 4): exhibited resistance to cisplatin
antitumor effect (number of living cells) (HS746T cell line [4]; HS746T): did not exhibit an antitumor effect

O=C(Nc1ccc(Cl)cc1)C1CCCN(C(=O)c2cccc(-c3ccco3)c2)C1 (centres unmarked) [CCG-203971, N-(4-chlorophenyl)-1-(3-(furan-2-yl)benzoyl)piperidine-3-carboxamide]
matrix stiffness and TGF-β-mediated fibrogenesis [8]: inhibits both matrix stiffness and TGF-β-mediated fibrogenesis
anti-fibrotic activity [9]: exhibits anti-fibrotic activity
antitumor effect (number of living cells) (HS746T cell line [4]; HS746T): significantly improved antitumor effect
anti-fibrotic activity [10]: exhibits anti-fibrotic activity

O=C(Nc1ccc(Cl)cc1)C1CN(C(=O)c2cccc(-c3ccco3)c2)CC(F)(F)C1 (centres unmarked) [CCG-222740, N-(4-Chlorophenyl)-5,5-difluoro-1-(3-(furan-2-yl)benzoyl)piperidine-3-carboxamide]
scar tissue formation [11]: effectively prevent scar tissue formation
expression of alpha smooth muscle actin protein [12]: prevent the expression of alpha smooth muscle actin protein
antitumor effect (number of living cells) (HS746T cell line [4]; HS746T): significantly improved antitumor effect

— US12653816B2, “Composition for inhibiting growth of cancer stem cells” (INDUSTRY-ACADEMIC COOPERATION FOUNDATION, YONSEI UNIVERSITY, priority 2020, dated 2026)
